Format in all cases: cell-based, human
For assay [1], the system named is 53BP1 foci. Put plainly: 53BP1 foci by indirect immunofluorescence after IR or UV. The conditions noted are these: aphidicolin after the UV irradiation. The method, then: (§1) For IR treatment, cells were exposed to gamma(λ)-irradiation using a Cs^137 source at a rate of 7.7 Gray/min in 6 cm dishes. For UV radiation, cells were washed with PBS and exposed to 25 J/m^2 UV (265 nm) radiation in a Stratalinker (Stratagene) without a lid. After UV radiation, cells were incubated in media until harvest. For immunoblotting as described in FIG. 2B, cells were harvested 1 hr post-UV. MMS and etoposide (0.01% w/v and 50 μg/ml, respectively) were added to the media and cells were incubated for 1 hr before harvesting.
(§2) To stain cells for immunofluorescence, tissue culture cells plated on dishes with coverslips were washed twice with PBS, fixed with 2% paraformaldehyde in PBS (stored at −20° C.) for 10 minutes at room temperature (RT), washed twice with PBS and permeabilized with 0.5% NP-40 in PBS for 10 minutes at RT and washed three times with PBS. Cells were processed immediately or stored at 4° C. wrapped in PBS with sodium azide. […]

Assay [2] has as its system Rif1 foci. The experiment in a line: UV-induced Rif1 foci by indirect immunofluorescence. The conditions noted are these: aphidicolin after the UV irradiation. The method, then:
as §1, §2

The test system of assay [3] is Rif1 foci. Put plainly: Rif1 foci after drug treatment, immunofluorescence. The settings on record: MMS 0.01% w/v, etoposide 50 μg/ml, 1 hr; hydroxyurea prolonged incubation. The method, then:
as §1
To stain cells for immunofluorescence, tissue culture cells plated on dishes with coverslips were washed twice with PBS, fixed with 2% paraformaldehyde in PBS (stored at −20° C.) for 10 minutes at room temperature (RT), washed twice with PBS and permeabilized with 0.5% NP-40 in PBS for 10 minutes at RT and washed three times with PBS. Cells were processed immediately or stored at 4° C. wrapped in PBS with sodium azide. Coverslips were placed on parafilm in a humidified tray and blocked with PBG (0.2% (w/v) cold water fish gelatin (Sigma), 0.5% (w/v) BSA (Sigma) in PBS (stored at −20° C.) for 30 minutes at RT. Cells were then incubated with primary antibody diluted in PBG for 3 hours at RT, washed three times with PBG for 5 minutes at RT, incubated with secondary antibody diluted 1:100 in PBG for 40 minutes at RT, washed three times with PBG for 5 minutes at RT (with the last wash containing DAPI ([…]). Coverslips were then washed twice with PBS and mounted on glass slides in mounting media and sealed with nail polish.

Regarding `C[C@@]1(CO)[C@H](O)CC[C@@]2(C)[C@H]1CC[C@H]1C[C@@H]3C[C@@]12CC[C@]3(O)CO` [Aphidicolin], in assay [1], the “53BP1 foci after UV” value is on record as “still detectable”. In addition, the “Rif1 foci after UV” value in assay [2] is listed as “fail to form Rif1 foci after UV”. Regarding `COS(C)(=O)=O` [MMS], the “Rif1 foci formation after treatment” value in assay [3] is “forms foci”. For the molecule `COc1cc([C@@H]2c3cc4c(cc3[C@@H](O[C@@H]3O[C@@H]5CO[C@@H](C)O[C@H]5[C@H](O)[C@H]3O)[C@H]3COC(=O)[C@H]23)OCO4)cc(OC)c1O` [etoposide], in assay [3], the “Rif1 foci formation after treatment” value is given as “forms foci”. Consider `NC(=O)NO` [hydroxyurea], for which the “Rif1 foci formation after treatment” value in assay [3] is reported as “forms foci”.
